Results published in the supplement of paper PMC10307832.

Key:
Experiment in all cases: relative viability (nuclei count vs DMSO), 5 days (fraction); higher = more cells survive
HCC-44 = tested on: HCC-44
Summary of the method: (§1)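 Lung cancer cell lines in 1536-well plates got either a single drug or a fixed anchor-drug dose together with five library-drug doses (not always all listed) in √10 steps, by pin tool, on the day after seeding. Nuclei were counted after 5 days, and relative viability is the treated-to-vehicle ratio of nuclei counts. Values are medians of duplicate plates.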

NCI-H2085 = tested on: NCI-H2085
Summary of the method: as §1

NCI-H2170 = tested on: NCI-H2170
Summary of the method: as §1

EPLC-272H = tested on: EPLC-272H
Summary of the method: as §1

EKVX = tested on: EKVX
Summary of the method: as §1

LOU-NH91 = tested on: LOU-NH91
Summary of the method: as §1

NCI-H2023 = tested on: NCI-H2023
Summary of the method: as §1

NCI-H2405 = tested on: NCI-H2405
Summary of the method: as §1

PC-14 = tested on: PC-14
Summary of the method: as §1

NCI-H1793 = tested on: NCI-H1793
Summary of the method: as §1

NCI-H1650 = tested on: NCI-H1650
Summary of the method: as §1

SW 900 = tested on: SW 900
Summary of the method: as §1

NCI-H3122 = tested on: NCI-H3122
Summary of the method: as §1

COR-L23 = tested on: COR-L23
Summary of the method: as §1

NCI-H1734 = tested on: NCI-H1734
Summary of the method: as §1

ABC-1 = tested on: ABC-1
Summary of the method: as §1

NCI-H520 = tested on: NCI-H520
Summary of the method: as §1

NCI-H441 = tested on: NCI-H441
Summary of the method: as §1

NCI-H2347 = tested on: NCI-H2347
Summary of the method: as §1

201T = tested on: 201T
Summary of the method: as §1

RERF-LC-KJ = tested on: RERF-LC-KJ
Summary of the method: as §1

NCI-H647 = tested on: NCI-H647
Summary of the method: as §1

NCI-H1993 = tested on: NCI-H1993
Summary of the method: as §1

## C[C@@H]1CN(CC(=O)Nc2ccc3c(c2)Cc2cccc(-c4cc(=O)cc(N5CCOCC5)o4)c2S3)C[C@H](C)O1 + O=C(CCCCCCC(=O)Nc1ccccc1)NO [Vorinostat] (partner 1 µM)
HCC-44; first compound 0.04 µM
  relative viability: 1.12
HCC-44; first compound 0.1265 µM
  relative viability: 1.01
HCC-44; first compound 0.4 µM
  relative viability: 1.08
HCC-44; first compound 4 µM
  relative viability: 0.966
NCI-H2085; first compound 0.04 µM
  relative viability: 0.814
NCI-H2085; first compound 0.1265 µM
  relative viability: 0.782
NCI-H2085; first compound 0.4 µM
  relative viability: 0.69
NCI-H2085; first compound 4 µM
  relative viability: 0.667
NCI-H2170; first compound 0.04 µM
  relative viability: 0.857
NCI-H2170; first compound 0.1265 µM
  relative viability: 0.811
NCI-H2170; first compound 0.4 µM
  relative viability: 0.798
NCI-H2170; first compound 4 µM
  relative viability: 0.742
EPLC-272H; first compound 0.04 µM
  relative viability: 0.457
EPLC-272H; first compound 0.1265 µM
  relative viability: 0.414
EPLC-272H; first compound 0.4 µM
  relative viability: 0.407
EPLC-272H; first compound 4 µM
  relative viability: 0.307
EKVX; first compound 0.04 µM
  relative viability: 0.753
EKVX; first compound 0.1265 µM
  relative viability: 0.666
EKVX; first compound 0.4 µM
  relative viability: 0.696
EKVX; first compound 4 µM
  relative viability: 0.661
LOU-NH91; first compound 0.04 µM
  relative viability: 0.611
LOU-NH91; first compound 0.1265 µM
  relative viability: 0.945
LOU-NH91; first compound 0.4 µM
  relative viability: 0.847
LOU-NH91; first compound 4 µM
  relative viability: 0.785
NCI-H2023; first compound 0.04 µM
  relative viability: 0.578
NCI-H2023; first compound 0.1265 µM
  relative viability: 0.59
NCI-H2023; first compound 0.4 µM
  relative viability: 0.581
NCI-H2023; first compound 4 µM
  relative viability: 0.505
NCI-H2405; first compound 0.04 µM
  relative viability: 1.06
NCI-H2405; first compound 0.1265 µM
  relative viability: 1.12
NCI-H2405; first compound 0.4 µM
  relative viability: 0.94
NCI-H2405; first compound 4 µM
  relative viability: 1.01
PC-14; first compound 0.04 µM
  relative viability: 0.75
PC-14; first compound 0.1265 µM
  relative viability: 0.689
PC-14; first compound 0.4 µM
  relative viability: 0.705
PC-14; first compound 4 µM
  relative viability: 0.61
NCI-H1793; first compound 0.04 µM
  relative viability: 0.847
NCI-H1793; first compound 0.1265 µM
  relative viability: 0.745
NCI-H1793; first compound 0.4 µM
  relative viability: 0.762
NCI-H1793; first compound 4 µM
  relative viability: 0.574
NCI-H1650; first compound 0.04 µM
  relative viability: 0.604
NCI-H1650; first compound 0.1265 µM
  relative viability: 0.488
NCI-H1650; first compound 0.4 µM
  relative viability: 0.588
NCI-H1650; first compound 4 µM
  relative viability: 0.517
SW 900; first compound 0.04 µM
  relative viability: 0.421
SW 900; first compound 0.1265 µM
  relative viability: 0.607
SW 900; first compound 0.4 µM
  relative viability: 0.534
SW 900; first compound 4 µM
  relative viability: 0.381
NCI-H3122; first compound 0.04 µM
  relative viability: 1.01
NCI-H3122; first compound 0.1265 µM
  relative viability: 0.84
NCI-H3122; first compound 0.4 µM
  relative viability: 1
NCI-H3122; first compound 4 µM
  relative viability: 1.29
COR-L23; first compound 0.04 µM
  relative viability: 0.433
COR-L23; first compound 0.1265 µM
  relative viability: 0.451
COR-L23; first compound 0.4 µM
  relative viability: 0.473
COR-L23; first compound 4 µM
  relative viability: 0.333
NCI-H1734; first compound 0.04 µM
  relative viability: 0.602
NCI-H1734; first compound 0.1265 µM
  relative viability: 0.768
NCI-H1734; first compound 0.4 µM
  relative viability: 0.812
NCI-H1734; first compound 4 µM
  relative viability: 0.901
ABC-1; first compound 0.04 µM
  relative viability: 0.917
ABC-1; first compound 0.1265 µM
  relative viability: 1.14
ABC-1; first compound 0.4 µM
  relative viability: 1.23
ABC-1; first compound 4 µM
  relative viability: 1.27
NCI-H520; first compound 0.04 µM
  relative viability: 0.776
NCI-H520; first compound 0.1265 µM
  relative viability: 0.677
NCI-H520; first compound 0.4 µM
  relative viability: 0.656
NCI-H520; first compound 4 µM
  relative viability: 0.562
NCI-H441; first compound 0.04 µM
  relative viability: 0.718
NCI-H441; first compound 0.1265 µM
  relative viability: 0.777
NCI-H441; first compound 0.4 µM
  relative viability: 0.849
NCI-H441; first compound 4 µM
  relative viability: 0.625
NCI-H2347; first compound 0.04 µM
  relative viability: 0.564
NCI-H2347; first compound 0.1265 µM
  relative viability: 0.623
NCI-H2347; first compound 0.4 µM
  relative viability: 0.562
NCI-H2347; first compound 4 µM
  relative viability: 0.533
201T; first compound 0.04 µM
  relative viability: 0.926
201T; first compound 0.1265 µM
  relative viability: 0.942
201T; first compound 0.4 µM
  relative viability: 1.01
201T; first compound 4 µM
  relative viability: 0.81
RERF-LC-KJ; first compound 0.04 µM
  relative viability: 0.648
RERF-LC-KJ; first compound 0.1265 µM
  relative viability: 0.655
RERF-LC-KJ; first compound 0.4 µM
  relative viability: 0.738
RERF-LC-KJ; first compound 4 µM
  relative viability: 0.543
NCI-H647; first compound 0.04 µM
  relative viability: 0.547
NCI-H647; first compound 0.1265 µM
  relative viability: 0.491
NCI-H647; first compound 0.4 µM
  relative viability: 0.665
NCI-H647; first compound 4 µM
  relative viability: 0.416
NCI-H1993; first compound 0.04 µM
  relative viability: 0.911
NCI-H1993; first compound 0.1265 µM
  relative viability: 0.78
NCI-H1993; first compound 0.4 µM
  relative viability: 0.626
NCI-H1993; first compound 4 µM
  relative viability: 0.735
